Reference: patent publication US9359196B2, “Antiproliferative compositions comprising curcumin analogs and methods of producing and using same” (The Board of Regents of the University of Oklahoma, priority 2009, dated 2016)

Columns and labels:
H441 cells [1] = assay: Transmission electron microscopy of treated H441 cells (autophagy); assay type: cell-based, human; conditions: 24 hour treatment, 1 and 10 μM
Protocol: Transmission Electron Microscopy (TEM): TEM was performed after 24 hour treatment with 1 and 10 μM of compound 1 or compound 29 (CLEFMA). The cells were fixed in 0.1M sodium cacodylate buffer containing 4% paraformaldehyde (PFA) and 2% glutaraldehyde for 4 h at room temperature. The samples were post-fixed in 1% osmium tetroxide for 1.5 h and washed with 0.1M sodium cacodylate buffer, followed by dehydration in an ethanol series of 50%, 60%, 75%, 85%, and 95% for 15 minutes each. The cells were washed twice in 100% Ethanol and passed through a series of epon-araldite (6.2 g epon+4.4 g araldite+12.4 g of dodecenyl succinic anhydride+0.8 g N,N-dimethylbenzylamine) solution in ethanol, [Matsko et al., 2005] before embedding the cells in epon-araldite resin. Finally, 100 nm sections were cut using a microtome, and the sections were placed on glow-discharged 300 mesh Copper grids. The ultrasections were stained with Sato's lead (mixture of calcinated lead citrate, lead nitrate, lead acetate and sodium citrate), and observed by a Hitachi H-7600 Transmission Electron Microscope at 2500× (Oklahoma Medical Research Foundation Imaging and core facility, Oklahoma City).

[2] = tested on: lung adenocarcinoma cell line H441; assay: Cell proliferation (hexosaminidase assay) in lung adenocarcinoma H441 cells, Example 1; assay type: cell-based, human; conditions: Homo sapiens, NCI-H441, 24 h of treatment, 1-100 μM tested, fitted plot, read-out: IC50 value
Protocol: Cell Proliferation Studies: In order to assess the anti-proliferative activity of the synthesized compounds, an in vitro cell culture system of lung adenocarcinoma cell line H441 was used. The cell detachment and anti-proliferative activity was measured as a decrease in hexosaminidase enzyme activity associated with remainder of the adhered cells. [Landegren, 1984] […] The concentration versus cell proliferation plots were analyzed by an exponential fit (Table 1). The results were compared with the anti-proliferative activity of compound 1.
Cell Culture and drug treatment: Human lung adenocarcinoma cell line NCI-H441 (ATCC Number: HTB-174) was obtained from the American Type Culture Collection (Manassas, Va.). H441 cells were maintained at 37° C. with 5% CO2 in McCoy's 5A Medium (Invitrogen, Carlsbad, Calif.) supplemented with 5% heat-inactivated fetal bovine serum (FBS). All media contained gentamicin at 50 μg/ml (GIBCO Laboratories, Grand Island, N.Y.). Other cells lines (PANC-1, MiaPaCa-2 and PC-3) were also similarly maintained, except that the cell culture medium was RPMI 1640 instead of McCoy's.
To evaluate the anti-proliferative activity of synthesized bis(2-fluorobenzylidene)-4-piperidone and its derivatives, the cells were seeded in 96-well flat-bottom tissue culture plates at a density of 10×10^3 cells per well. The cells were allowed to attach and grow overnight. The test compounds were solubilized in dimethyl sulfoxide (DMSO), filtered through 0.2 μm nylon filter and added to cells at 1, 10, 25 and 100 μM concentrations in culture medium supplemented with 5% FBS. The DMSO concentration was maintained at 0.1% per well. Control wells received equivalent volume of DMSO without any test compounds. The cells were allowed to remain in the treatment medium for 24, 48 and 72 hours.
Cell Proliferation: The total number of cells after the treatment period was estimated by the hexosaminidase assay. [Landegren, 1984] Briefly, the medium was removed and hexosaminidase substrate solution in citrate buffer pH 5 (7.5 mM), […] (Calbiochem, San Diego, Calif.) was added at 60 μl per well. The plate was incubated at 37° C. in 100% humidity for 30 minutes, before stopping the reaction with 90 μl of 50 mM glycine containing 5 mM of EDTA (pH 10.4). The absorbance was measured at 405 nm. The experiments were conducted in triplicate, and repeated at least twice. The data were analyzed as percent of control, where the control wells were treated with equivalent amounts of DMSO alone, and the analyzed data was presented as average±standard error of mean. The differences among mean values were deemed significant at p<0.05.
For IC50 calculations, a plot between the drug concentration and hexosaminidase activity was generated and the data was fitted either linearly or exponentially. The best fit was used for further processing of data.

H441 cells [3] = assay: Monodansylcadaverine fluorescence microscopy of autophagosomes in H441 cells; assay type: cell-based, human
Protocol: Monodansylcadaverine (MDC) is an autofluorescent marker for autophagic vacuoles. [Biederbick et al., 1995] It was found the emergence of intense MDC-fluorescence in the treated cells. The fluorescence vanished when the cells were treated with 3-methyl adenine (3-MA). […] [Seglen et al., 1982]

Solubility in solvents = assay type: physicochemical
From the text: The goal was to synthesize compounds that can be inserted into lipid carriers, such as liposomes. […] The retention of activity by compounds with 12-14 carbon unsaturated a chain modification is encouraging, for it enables the incorporation of these compounds in a lipid carrier system. […] This appears to be the first report where piperidinyl nitrogen of chalcones has been modified with lipid chains.

[4] = tested on: Human lung adenocarcinoma cell line NCI-H441; assay: In vitro anti-proliferative activity in H441 cells (hexosaminidase), Example 2; assay type: cell-based
Protocol: Human lung adenocarcinoma cell line NCI-H441 (ATCC # HTB-174) and normal lung fibroblasts LL-24 (ATCC #CCL-151) were obtained from American Type Culture Collection (Manassas, Va.). The cells were maintained at 37° C. with 5% CO2 in RPMI 1640 medium (Invitrogen, Carlsbad, Calif.). The medium was supplemented with 10% heat-inactivated fetal bovine serum and 50 μg/ml of gentamicin (GIBCO Laboratories, Grand Island, N.Y.). For cell proliferation assay, the cells were seeded in 96-well flat-bottom tissue culture plates at a density of 0.5−1×10^4 cells per well. The cells were allowed to adhere and grow overnight, followed by treatment with CLEFMA or CLEFMA-liposomes. The concentration of CLEFMA was maintained in the range of 0.1-25 μM in 100 μl of RPMI 1640 medium. For comparison, the cells were also treated with 1 and 10 μM natural curcumin and EF24. EF24 is a potent synthetic curcuminoid and a close analog of CLEFMA [Adams et al., 2004]. All solutions of plain drugs were made in dimethylsulfoxide (DMSO). The concentration of DMSO in the treatment medium was maintained at 0.1%. The control wells received equivalent amounts of DMSO or phospholipid-matched control liposomes. Inhibition of cell proliferation was determined by measuring a decrease in hexosaminidase activity as described by Landegren [Landegren, 1984]. Para-nitrophenol-N-acetyl-beta-D-glucosaminide (60 μl per well) was used as the substrate for the hexosaminidase enzyme. The results of hexosaminidase assay were also confirmed by visualization of cultured cells under a microscope.

For `O=C1C(=Cc2ccccc2F)CNCC1=Cc1ccccc1F` [Compound 1, 3,5-Bis(2-fluorobenzylidene)-4-piperidone, reference compound], the “change in cellular architecture (TEM)” value (H441 cells [1]) was “induced a substantial change in cellular architecture”, the IC50 [2] was 44 µM and the “autophagosome formation (MDC fluorescence)” value (H441 cells [3]) was “appearance of intracellular vacuoles or autophagosomes”.
With `CCCCCCCCCCCCCCCCCC(=O)N1CC(=Cc2ccccc2F)C(=O)C(=Cc2ccccc2F)C1` [Compound 25, 3,5-Bis-(2-fluorobenzylidene)-1-octadecanoyl-4-piperidone] the melting point was 70 to 71 °C and the solubility in solvents (Solubility in solvents) was “insoluble in all common solvents except chloroform”.
In the case of `N[C@@H](CCC(=O)N[C@@H](CS)C(=O)NCC(=O)O)C(=O)O` [Glutathione, glutathione], the “anti-proliferative activity in H441 cells” value [4] is reported as “not anti-proliferative by itself”.
